Active and inactive are the calls of the source. No cut-off for these calls is given here.
How the values were obtained:
HGC-27 [1] = assay: Antiproliferative activity against human HGC-27 cells assessed as inhibition of cell growth incubated for 48 hrs by MTT assay; type: functional, cell-based; conditions: HGC-27, 48 h
A549 = assay: Antiproliferative activity against human A549 cells assessed as inhibition of cell growth incubated for 48 hrs by MTT assay; type: functional, cell-based; conditions: A549, 48 h
[2] = molecular target: Poly [ADP-ribose] polymerase 1 (Homo sapiens, UniProt P09874); assay: Inhibition of PARP-1 (unknown origin) incubated for 70 mins by HT universal chemiluminescent assay
L02 = assay: Antiproliferative activity against human L02 cells assessed as inhibition of cell growth incubated for 48 hrs by MTT assay; type: functional, cell-based; conditions: L02, 48 h
[3] = molecular target: T1, DNA topoisomerase 1 (Homo sapiens) (UniProt P11387); assay: Inhibition of human topoisomerase 1 assessed as relaxation of supercoiled pBR322 plasmid DNA at 100 uM incubated for 10 to 15 mins by EtBr staining based agarose gel electrophoresis method; conditions: time 10-15 min
T1 sequence (whole entry): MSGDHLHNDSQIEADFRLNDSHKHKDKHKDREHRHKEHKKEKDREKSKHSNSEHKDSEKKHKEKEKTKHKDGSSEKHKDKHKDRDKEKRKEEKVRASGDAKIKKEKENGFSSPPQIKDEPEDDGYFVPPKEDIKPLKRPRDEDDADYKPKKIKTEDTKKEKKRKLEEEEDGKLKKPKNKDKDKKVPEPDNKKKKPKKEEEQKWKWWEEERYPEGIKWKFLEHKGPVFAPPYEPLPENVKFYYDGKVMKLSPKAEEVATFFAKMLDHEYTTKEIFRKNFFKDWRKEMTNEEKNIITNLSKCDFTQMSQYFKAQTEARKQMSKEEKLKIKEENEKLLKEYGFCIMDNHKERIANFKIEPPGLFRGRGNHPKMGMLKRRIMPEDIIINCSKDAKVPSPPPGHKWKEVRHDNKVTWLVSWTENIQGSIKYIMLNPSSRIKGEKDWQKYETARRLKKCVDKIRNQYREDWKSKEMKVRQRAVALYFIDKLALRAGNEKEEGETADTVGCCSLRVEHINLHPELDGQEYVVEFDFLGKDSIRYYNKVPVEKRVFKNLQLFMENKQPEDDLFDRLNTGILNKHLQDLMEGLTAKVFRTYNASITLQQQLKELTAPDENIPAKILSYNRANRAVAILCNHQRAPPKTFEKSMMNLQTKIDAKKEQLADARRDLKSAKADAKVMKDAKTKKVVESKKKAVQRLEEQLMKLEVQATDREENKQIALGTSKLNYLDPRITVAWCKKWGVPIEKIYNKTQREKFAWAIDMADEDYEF

HepG2 = assay: Antiproliferative activity against human HepG2 cells assessed as inhibition of cell growth incubated for 48 hrs by MTT assay; type: functional, cell-based; conditions: HepG2, 48 h
HeLa = assay: Antiproliferative activity against human HeLa cells assessed as inhibition of cell growth incubated for 48 hrs by MTT assay; type: functional, cell-based
[4] = Acute toxicity in BALB/c mouse xenografted with human HGC-27 cells assessed as increase in connective tissue proliferation of kidney at 40 mg/kg,ip administrated every other day for 17 days by hematoxylin and eosin staining method; type: organism-based; conditions: in vivo, 408 h, time 17 day
[5] = Acute toxicity in BALB/c mouse xenografted with human HGC-27 cells assessed as venous congestion in spleen at 40 mg/kg,ip administrated every other day for 17 days by hematoxylin and eosin staining method; type: organism-based; conditions: in vivo, 408 h, time 17 day
HGC-27 [6] = assay: Antitumor activity against human HGC-27 cells xenografted in BALB/c mouse assessed as tumor growth inhibition at 40 mg/kg,ip administrated every other day for 17 days relative to control; type: functional; conditions: HGC-27, 408 h, time 17 day, read-out: TGI
[7] = Acute toxicity in BALB/c mouse xenografted with human HGC-27 cells assessed as increase in mucin secretion of lung at 40 mg/kg,ip administrated every other day for 17 days by hematoxylin and eosin staining method; type: organism-based; conditions: in vivo, 408 h, time 17 day
[8] = Acute toxicity in BALB/c mouse xenografted with human HGC-27 cells assessed as change in body weight at 40 mg/kg,ip administrated every other day for 17 days; type: organism-based; conditions: in vivo, 408 h, time 17 day

Chain of Poly [ADP-ribose] polymerase 1 (P09874 whole entry): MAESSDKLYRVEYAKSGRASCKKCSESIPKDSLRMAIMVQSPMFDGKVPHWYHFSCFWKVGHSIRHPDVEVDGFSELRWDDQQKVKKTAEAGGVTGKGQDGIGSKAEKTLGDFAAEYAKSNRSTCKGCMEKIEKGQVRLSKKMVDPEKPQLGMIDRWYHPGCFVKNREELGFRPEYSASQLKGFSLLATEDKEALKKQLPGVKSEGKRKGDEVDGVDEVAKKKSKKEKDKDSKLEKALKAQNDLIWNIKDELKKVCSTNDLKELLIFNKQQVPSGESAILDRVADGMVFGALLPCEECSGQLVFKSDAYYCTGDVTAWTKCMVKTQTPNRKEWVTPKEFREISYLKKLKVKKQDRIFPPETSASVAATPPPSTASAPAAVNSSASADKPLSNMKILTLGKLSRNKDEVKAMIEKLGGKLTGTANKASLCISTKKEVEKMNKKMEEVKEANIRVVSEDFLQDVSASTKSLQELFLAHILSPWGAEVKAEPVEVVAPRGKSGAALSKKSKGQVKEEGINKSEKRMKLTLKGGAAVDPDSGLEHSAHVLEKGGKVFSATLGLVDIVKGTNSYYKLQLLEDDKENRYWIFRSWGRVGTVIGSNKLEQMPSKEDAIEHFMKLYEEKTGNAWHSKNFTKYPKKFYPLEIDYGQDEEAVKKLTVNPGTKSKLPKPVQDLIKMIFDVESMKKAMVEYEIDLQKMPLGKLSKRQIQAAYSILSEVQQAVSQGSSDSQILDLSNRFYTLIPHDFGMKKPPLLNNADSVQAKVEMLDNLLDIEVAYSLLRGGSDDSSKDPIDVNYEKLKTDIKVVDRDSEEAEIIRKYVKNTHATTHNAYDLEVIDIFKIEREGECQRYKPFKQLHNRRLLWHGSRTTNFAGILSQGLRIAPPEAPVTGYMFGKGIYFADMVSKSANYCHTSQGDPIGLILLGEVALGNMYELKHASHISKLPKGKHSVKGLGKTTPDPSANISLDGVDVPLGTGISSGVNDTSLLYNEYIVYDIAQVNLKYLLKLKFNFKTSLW

Work on `O=C(CCC[C@@H]1[C@H]2CCCN3CCC[C@@H](CN1C(=O)OCC1c4ccccc4-c4ccccc41)[C@@H]23)NCCCc1nc2ccc(F)cc2[nH]1` yielded an IC50 (HGC-27 [1]; read-out: IC50) of 8.12 µM, an IC50 (A549) of 11.8 µM and an IC50 [2] of over 16 µM. For the same molecule, the IC50 (L02) was over 64 µM, the inhibition [3] was “Active” and the IC50 (HepG2) was 6.69 µM. It also gave an IC50 (HeLa) of 16 µM.
For `Cc1ccc(S(=O)(=O)N2C[C@@H]3CCCN4CCC[C@@H]([C@H]34)[C@H]2CCCc2nc3cc(Br)ccc3n2S(=O)(=O)c2ccc(C)cc2)cc1`, the IC50 (HGC-27 [1]; read-out: IC50) was 6.36 µM, the IC50 (A549) was 10.8 µM and the IC50 [2] was 1.41 µM. For the same molecule, the IC50 (L02) was over 64 µM, the inhibition [3] was “Active” and the IC50 (HepG2) was 4.92 µM. It also gave an IC50 (HeLa) of 7.45 µM.
`Cc1ccc(S(=O)(=O)N2C[C@@H]3CCCN4CCC[C@@H]([C@H]34)[C@H]2CCCc2nc3ccc(Br)cc3n2S(=O)(=O)c2ccc(C)cc2)cc1` showed an IC50 (HGC-27 [1]; read-out: IC50) of 9.38 µM, an IC50 (A549) of 12.3 µM and an IC50 [2] of 4.17 µM. For the same molecule, the IC50 (L02) was over 64 µM, the IC50 (HepG2) was 5.89 µM and the IC50 (HeLa) was 8.56 µM.
With `CCc1c2c(nc3ccc(OC(=O)N4CCC(N5CCCCC5)CC4)cc13)-c1cc3c(c(=O)n1C2)COC(=O)[C@]3(O)CC` [IRINOTECAN] the IC50 (HGC-27 [1]) was 7.01 µM, the IC50 (A549) was 6.13 µM and the Activity [4] was “Toxic”. The Activity [5] was “Toxic”, the IC50 (HepG2) was 10.8 µM and the inhibition in vivo at 40 mg/kg (HGC-27 [6]) was 87%. For the same molecule, the IC50 (HeLa) was 13.2 µM, the Activity [7] was “Toxic” and the Activity [8] was “Toxic”.

— ChEMBL document CHEMBL5500344, “Design, synthesis and biological evaluation of matrine contains benzimidazole derivatives as dual TOPOI and PARP inhibitors for cancer therapy” (Eur J Med Chem, 2024)
